Measured values: patent US20100221351A1, “Controlled Drug Delivery Using a Thermally Responsive Nanocapsule to Augment Cryoablation” (UNIVERSITY OF SOUTH CAROLINA, priority 2009, published 2010)

Assay: Release of trehalose during dialysis into 1 L water at 37° C.
Assay type: physicochemical
Conditions: 0.3 g trehalose in 2 ml water
Description: FIG. 2. Release of trehalose (0.3 g) into 1 L water during dialysis under 3 conditions: free dissolved, nanoencapsulated (NE) with cooling/heating between 22 and 37° C. (NE22-37C), and nanoencapsulated kept at 37° C. (NE37C) before dialysis.
This nanocapsule has been used to physically encapsulate a small molecular weight hydrophilic trehalose (Mw=342 Da) for its intracellular delivery and controlled release. […] Clearly, the free dissolved trehalose was completely released from the dialysis bag in ˜2 hr, while trehalose release from the other two conditions with nanoencapsulation is much slower. The release for the sample kept 37° C. (i.e., NE37C) reached equilibrium at approximately 4 hours while it is approximately 3 hours for the sample with cooling and heating between 22 and 37° C. (i.e., NE22-37C). Moreover, approximately 11.3 and 4.3 mg trehalose were still retained in the NE37C and NE22-37C samples under the equilibrium state, respectively. […] In other words, a quick release of the nanoencapsulated trehalose can be achieved by thermally cycling the trehalose loaded nanocapsule between 22 and 37° C.

## OC[C@H]1O[C@H](O[C@H]2O[C@H](CO)[C@@H](O)[C@H](O)[C@H]2O)[C@H](O)[C@@H](O)[C@@H]1O [free dissolved trehalose, trehalose]
  time to complete release of trehalose from the dialysis bag: ~2 h
